Reference: patent publication EP4667464A1 (Cyrus Therapeutics Inc., priority 2023, dated 2024)
Like-named read-outs stand apart in the source and are kept apart here.

Assays:
KRAS G12C::SOS1 = target: T1, KRAS G12C::SOS1 (Homo sapiens, UniProt Q07889); assay: KRAS G12C::SOS1 protein-protein interaction (PPI) inhibition assay (HTRF); type: binding
T1 construct: purchased CISBIO 64KRASG12PEH
T1 sequence (Q07889 1-1333): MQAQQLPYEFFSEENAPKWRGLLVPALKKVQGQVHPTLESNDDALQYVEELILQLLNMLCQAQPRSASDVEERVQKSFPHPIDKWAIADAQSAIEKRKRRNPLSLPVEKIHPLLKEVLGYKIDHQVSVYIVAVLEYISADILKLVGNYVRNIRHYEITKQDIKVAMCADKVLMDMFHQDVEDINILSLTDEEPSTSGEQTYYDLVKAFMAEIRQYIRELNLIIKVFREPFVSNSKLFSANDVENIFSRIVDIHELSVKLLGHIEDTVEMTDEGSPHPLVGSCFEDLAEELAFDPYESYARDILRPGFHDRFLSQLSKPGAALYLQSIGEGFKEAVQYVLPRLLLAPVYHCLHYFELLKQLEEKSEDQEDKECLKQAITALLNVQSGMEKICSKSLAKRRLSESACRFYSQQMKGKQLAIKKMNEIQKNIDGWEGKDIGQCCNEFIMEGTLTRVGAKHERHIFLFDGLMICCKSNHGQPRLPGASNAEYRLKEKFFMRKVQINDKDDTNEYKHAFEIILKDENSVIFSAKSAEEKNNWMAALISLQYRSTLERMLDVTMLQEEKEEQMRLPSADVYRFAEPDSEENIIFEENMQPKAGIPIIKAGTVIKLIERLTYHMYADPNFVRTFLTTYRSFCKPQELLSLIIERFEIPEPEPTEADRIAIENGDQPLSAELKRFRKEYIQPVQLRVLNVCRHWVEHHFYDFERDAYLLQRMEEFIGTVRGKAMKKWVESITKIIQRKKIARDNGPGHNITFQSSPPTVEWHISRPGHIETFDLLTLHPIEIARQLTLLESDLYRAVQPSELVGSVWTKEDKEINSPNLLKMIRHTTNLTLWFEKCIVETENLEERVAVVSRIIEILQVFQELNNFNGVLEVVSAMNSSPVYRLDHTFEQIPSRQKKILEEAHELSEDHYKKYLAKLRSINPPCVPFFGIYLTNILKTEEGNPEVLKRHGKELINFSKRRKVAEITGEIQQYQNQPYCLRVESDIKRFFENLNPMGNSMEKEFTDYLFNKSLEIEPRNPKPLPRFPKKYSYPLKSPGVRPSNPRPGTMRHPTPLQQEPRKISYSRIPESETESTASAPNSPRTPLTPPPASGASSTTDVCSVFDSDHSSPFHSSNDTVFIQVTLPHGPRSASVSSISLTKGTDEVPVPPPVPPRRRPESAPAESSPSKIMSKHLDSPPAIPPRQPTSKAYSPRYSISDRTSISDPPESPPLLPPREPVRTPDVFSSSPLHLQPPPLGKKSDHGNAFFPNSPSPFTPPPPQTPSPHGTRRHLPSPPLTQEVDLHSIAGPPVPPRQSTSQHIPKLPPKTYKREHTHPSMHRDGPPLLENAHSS
Method in brief: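 Compounds, at eight 3-fold dilutions from 3 µM, were mixed with GTP-loaded Tag1-KRAS G12C, Tag2-SOS1 and a terbium-cryptate donor plus XL665 acceptor antibody pair. After 2 h at room temperature, time-resolved FRET reported the KRAS–SOS1 interaction.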

[1] = test system: lung cancer cell line NCI-H358 having the KRAS G12C variant; assay: Cancer cell growth inhibition, 3D spheroids (CellTiter-Glo 3D); type: cell-based; conditions: Homo sapiens, NCI-H358, 120 h, read-out: H358 cell viability
Protocol: Thereafter, the plate with the cells cultured was adapted to room temperature for 10 minutes, and then 50 µL of CellTiter-Glo® 3D Cell Viability Assay (PROMEGA, G9683) solution was dispensed, and reacted on a horizontal stirrer at a speed of 300 RPM for 30 minutes to induce the cell lysis. […] Thereafter, based on the measured values, the degree of cell growth in the well treated with each compound was calculated when the final cell density value of the well not treated with the test substance was set to 100%.

SOS1 = target: T2, SOS1 (Homo sapiens, UniProt Q07889); assay: SOS-catalyzed nucleotide exchange assay (HTRF, SOS1-mediated GTP loading of KRAS G12D); type: biochemical
T2 construct: HIS-SOS1cat (160 nM; Cytoskeleton, US); His (N); purchased Cytoskeleton
T2 sequence (Q07889 564-1049 limits assumed): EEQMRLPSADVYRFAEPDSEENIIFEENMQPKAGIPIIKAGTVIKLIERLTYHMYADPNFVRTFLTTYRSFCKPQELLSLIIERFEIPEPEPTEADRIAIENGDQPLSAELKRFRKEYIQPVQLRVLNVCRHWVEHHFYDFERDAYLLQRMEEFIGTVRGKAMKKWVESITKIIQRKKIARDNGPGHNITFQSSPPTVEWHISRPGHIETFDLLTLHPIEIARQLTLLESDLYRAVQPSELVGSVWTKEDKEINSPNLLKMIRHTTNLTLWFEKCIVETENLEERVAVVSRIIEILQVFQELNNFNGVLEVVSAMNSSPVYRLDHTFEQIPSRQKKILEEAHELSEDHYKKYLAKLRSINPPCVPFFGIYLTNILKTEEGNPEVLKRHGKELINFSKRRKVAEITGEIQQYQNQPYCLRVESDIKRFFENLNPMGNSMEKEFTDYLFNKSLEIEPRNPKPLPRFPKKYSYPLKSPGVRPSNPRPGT

[2] = 8 concentrations from 3 µM, three replicates, read-out: KRAS G12C::SOS1 PPI
[3] = 3D spheroids, 0.002-10 µM, 5 days
[4] = GST-KRAS G12D, HIS-SOS1cat, compound 128 pM to 10 µM, read-out: SOS-catalyzed nucleotide exchange assay

SMILES	IC50 (KRAS G12C::SOS1; [2]) [nM]	IC50 [1, 3] [nM]	IC50 (SOS1; [4]) [nM]	IC50 (KRAS G12C::SOS1) [nM]	IC50 (SOS1) [nM]	IC50 [1] [nM]
C[C@@H](NC(=O)c1ccc(=O)n(-c2cncc(-c3cnnn3C3CCC3)c2)n1)c1cccc(C(F)(F)F)c1F [Example 1-54, N-[(1R)-1-[2-fluoro-3-(trifluoromethyl)phenyl]ethyl]-1-[5-(1-cyclobutyl-1H-1,2,3-triazol-5-yl)-3-pyridyl]-6-oxo-pyridazine-3-carboxamide]	50 to 150	< 1000	< 50			
[2H]C([2H])([2H])n1nncc1-c1cncc(-n2nc(C(=O)N[C@H](C)c3cc(N)cc(C(F)(F)F)c3)ccc2=O)c1 [Example 1-58]	< 50	< 1000	< 50			
C[C@@H](NC(=O)c1cc(CO)c(=O)n(-c2cncc(-c3cnnn3C)c2)n1)c1cccc(C(F)(F)F)c1F [Example 1-61, N-{(R)-1-[2-fluoro-3-(trifluoromethyl)phenyl]ethyl}-5-(hydroxymethyl)-1-[5-(1-methyl-1H-1,2,3-triazol-5-yl)-3-pyridyl]-6-oxo-1,6-dihydropyridazine-3-carboxamide]	< 50	< 1000	50 to 150			
CC(=O)c1cc(C(=O)N[C@H](C)c2cccc(C(F)(F)F)c2F)nn(-c2cncc(-c3cnnn3C)c2)c1=O [Example 1-62, N-{(R)-1-[2-fluoro-3-(trifluoromethyl)phenyl]ethyl}-5-acetyl-1-[5-(1-methyl-1H-1,2,3-triazol-5-yl)-3-pyridyl]-6-oxo-1,6-dihydropyridazine-3-carboxamide]	< 50	< 1000	50 to 150			
C[C@@H](NC(=O)c1cc(-c2ccccc2)c(=O)n(-c2cncc(-c3cnnn3C)c2)n1)c1cccc(C(F)(F)F)c1F [Example 1-63, N-{(R)-1-[2-fluoro-3-(trifluoromethyl)phenyl]ethyl}-1-[5-(1-methyl-1H-1,2,3-triazol-5-yl)-3-pyridyl]-6-oxo-5-phenyl-1,6-dihydropyridazine-3-carboxamide]	50 to 150	< 1000	50 to 150			
C[C@@H](NC(=O)c1cc(C2=CCCCC2)c(=O)n(-c2cncc(-c3cnnn3C)c2)n1)c1cccc(C(F)(F)F)c1F [Example 1-64, N-{(R)-1-[2-fluoro-3-(trifluoromethyl)phenyl]ethyl}-5-(1-cyclohexen-1-yl)-1-[5-(1-methyl-1H-1,2,3-triazol-5-yl)-3-pyridyl]-6-oxo-1,6-dihydropyridazine-3-carboxamide]	> 150	1000 to 3000	> 150			
C[C@@H](NC(=O)c1ccc(=O)n(-c2cc(-c3cnnn3C3CC3)cnc2F)c1)c1cccc(C(F)(F)F)c1F [Example 1-67, (R)-5'-(1-cyclopropyl-1H-1,2,3-triazol-5-yl)-2'-fluoro-N-(1-(2-fluoro-3-(trifluoromethyl)phenyl)ethyl)-2-oxo-2H-[1,3'-bipyridine]-5-carboxamide]	50 to 150	< 1000	< 50			
C[C@@H](NC(=O)c1ccc(=O)n(-c2cncc(-c3cnnn3C)c2)n1)c1cc(N)cc(C(F)F)c1 [Example 2, N-[(1R)-1-[3-amino-5-(difluoromethyl)phenyl]ethyl]-1-[5-(3-methyltriazol-4-yl)-3-pyridyl]-6-oxo-pyridazine-3-carboxamide]		< 1000		50 to 150	50 to 150	
C[C@@H](NC(=O)c1ccc(=O)n(-c2cnnc(-c3cnnn3C)c2)n1)c1cccc(C(F)(F)F)c1F [Example 4, N-[(1R)-1-[2-fluoro-3-(trifluoromethyl)phenyl]ethyl]-1-[6-(3-methyltriazol-4-yl)pyridazin-4-yl]-6-oxo-pyridazine-3-carboxamide]				> 150	> 150	> 3000

The next lines start with results.

IC50 (KRAS G12C::SOS1; [2]) [nM]	IC50 [1, 3] [nM]	IC50 (SOS1; [4]) [nM]	SMILES	IC50 (KRAS G12C::SOS1) [nM]	IC50 (SOS1) [nM]	IC50 [1] [nM]
< 50	< 1000	< 50	C[C@@H](NC(=O)c1ccc(=O)n(-c2cncc(-c3cnnn3C)c2)n1)c1cc(N)cc(C(F)(F)F)c1F [Example 2-1, N-[(1R)-1-[5-amino-2-fluoro-3-(trifluoromethyl)phenyl]ethyl]-1-[5-(3-methyltriazol-4-yl)-3-pyridyl]-6-oxo-pyridazine-3-carboxamide]			
< 50	< 1000	< 50	Cc1c([C@@H](C)NC(=O)c2ccc(=O)n(-c3cncc(-c4ccnn4C)c3)n2)cc(N)cc1C(F)(F)F [Example 2-4, N-[(1R)-1-[5-amino-2-methyl-3-(trifluoromethyl)phenyl]ethyl]-1-[5-(2-methylpyrazol-3-yl)-3-pyridyl]-6-oxo-pyridazine-3-carboxamide]			
< 50	< 1000	< 50	Cc1cc(C(=O)N[C@H](C)c2cc(N)cc(C(F)(F)F)c2F)nn(-c2cncc(-c3cnnn3C)c2)c1=O [Example 2-5, N-[(1R)-1-[5-amino-2-fluoro-3-(trifluoromethyl)phenyl]ethyl]-5-methyl-1-[5-(3-methyltriazol-4-yl)-3-pyridyl]-6-oxo-pyridazine-3-carboxamide]			
< 50	< 1000	< 50	Cc1c([C@@H](C)NC(=O)c2cc(C)c(=O)n(-c3cncc(-c4cnnn4C)c3)n2)cc(N)cc1C(F)(F)F [Example 2-6, N-[(1R)-1-[5-amino-2-methyl-3-(trifluoromethyl)phenyl]ethyl]-5-methyl-1-[5-(3-methyltriazol-4-yl)-3-pyridyl]-6-oxo-pyridazine-3-carboxamide]			
< 50	> 3000	< 50	Cc1cc(C(=O)N[C@H](C)c2cc(N)cc(C(F)F)c2)nn(-c2cncc(-c3cnnn3C)c2)c1=O [Example 2-7, N-[(1R)-1-[3-amino-5-(difluoromethyl)phenyl]ethyl]-5-methyl-1-[5-(3-methyltriazol-4-yl)-3-pyridyl]-6-oxo-pyridazine-3-carboxamide]			
50 to 150	< 1000	50 to 150	C[C@@H](NC(=O)c1cc(C#N)c(=O)n(-c2cncc(-c3cnnn3C)c2)n1)c1cccc(C(F)(F)F)c1F [Example 3-2, 5-cyano-N-{(1R)-1-[2-fluoro-3-(trifluoromethyl)phenyl]ethyl}-1-[5-(1-methyl-1H-1,2,3-triazol-5-yl)-3-pyridyl]-6-oxo-1,6-dihydropyridazine-3-carboxamide]			
